Molecular target: T1, LPA3 receptor (Homo sapiens, UniProt Q9UBY5)
T1 sequence (Q9UBY5 1-353): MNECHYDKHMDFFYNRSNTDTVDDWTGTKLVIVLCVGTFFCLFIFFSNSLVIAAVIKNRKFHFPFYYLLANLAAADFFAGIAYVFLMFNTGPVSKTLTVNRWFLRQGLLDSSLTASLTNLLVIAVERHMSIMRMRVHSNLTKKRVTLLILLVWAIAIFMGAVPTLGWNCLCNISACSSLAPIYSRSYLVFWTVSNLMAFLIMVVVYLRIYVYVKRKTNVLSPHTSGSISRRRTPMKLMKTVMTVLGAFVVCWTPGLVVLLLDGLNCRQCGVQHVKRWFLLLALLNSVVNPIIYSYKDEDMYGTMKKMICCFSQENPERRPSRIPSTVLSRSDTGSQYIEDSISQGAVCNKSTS
Assay: intracellular calcium, Fura-2 AM, induced HEK […] Flp-In TREx cells
Type: cell-based

Row | Structure (SMILES) | EC50 [µM]
1 | CCCCCCCC/C=C\CCCCCCCC(=O)OC[C@@H](COP(O)(O)=S)OC [OMPT] | ~0.06
2 | Fc1ccc([C@@H]2CCNC[C@H]2COc2ccc3c(c2)OCO3)cc1 [paroxetine] | ~30

Reference: article doi:10.1101/2025.03.18.644008v1 (biorxiv, 2025)
